ChEMBL document CHEMBL3045584, “1-(6-Halonicotinyl)-2-nitromethylene-imidazolidines as Potential New Insecticides” (1992)
Calls of active or inactive are those of the source. No cut-off for these calls is given here.

Tests used:
Nephotettix cincticeps [1] = experiment: Insecticidal activity against Nephotettix cincticeps (green rice leafhopper) measured at 100 ppm after 5 days; format: functional, organism-based
Nephotettix cincticeps [2] = experiment: Insecticidal activity against Nephotettix cincticeps (green rice leafhopper) measured after 5 days; format: functional

| Structure (SMILES) | LC90 (Nephotettix cincticeps [1]) | LC90 (Nephotettix cincticeps [2]) [ppm] |
| --- | --- | --- |
| O=[N+]([O-])/C=C1\NCCN1Cc1ccccc1Cl | inactive | – |
| O=[N+]([O-])/C=C1\NCCN1Cc1cccnc1Cl | – | 200 |
| COc1ccc(CN2CCN/C2=C\[N+](=O)[O-])cc1 | – | 200 |
| Cc1ccc(CN2CCN/C2=C\[N+](=O)[O-])cc1 | – | 200 |
| O=[N+]([O-])/C=C1\NCCN1Cc1ccc(Cl)nc1 | – | 0.32 |
| O=[N+]([O-])/C=C1\NCCN1Cc1cccc(Cl)c1 | – | 200 |
| O=[N+]([O-])/C=C1\NCCN1Cc1ccccc1 | – | 200 |
| O=[N+]([O-])/C=C1\NCCN1Cc1ccccn1 | – | 200 |
| O=[N+]([O-])/C=C1\NCCN1Cc1ccnc(Cl)c1 | – | 200 |
| O=[N+]([O-])/C=C1\NCCN1Cc1cccnc1 | – | 8 |
| O=[N+]([O-])/C=C1\NCCN1Cc1ccc(C(F)(F)F)nc1 | – | 8 |
| O=[N+]([O-])/C=C1\NCCN1Cc1cncc(Cl)c1 | – | 40 |
| O=[N+]([O-])/C=C1\NCCN1Cc1ccc(Cl)cc1 | – | 40 |
| O=[N+]([O-])/C=C1\NCCN1Cc1ccc(F)nc1 | – | 0.32 |
| CSc1ccc(CN2CCN/C2=C\[N+](=O)[O-])cn1 | – | 1000 |
| O=[N+]([O-])/C=C1\NCCN1Cc1ccc(Br)nc1 | – | 0.32 |
| O=[N+]([O-])C=C1NCCN1 [2-(NITROMETHYLENE)IMIDAZOLIDINE] | – | 1000 |
| O=[N+]([O-])/C=C1\NCCN1Cc1ccncc1 | – | 8 |
| N#Cc1ccc(CN2CCN/C2=C\[N+](=O)[O-])cn1 | – | 200 |
| O=[N+]([O-])/C=C1\NCCN1Cc1ccc([N+](=O)[O-])cc1 | – | 200 |
| Cc1ccc(CN2CCN/C2=C\[N+](=O)[O-])cn1 | – | 1.6 |
| O=[N+]([O-])/C=C1\NCCN1Cc1ccc(Cl)cn1 | – | 200 |
